In PubChem BioAssay AID248 (DTP/NCI, 2004):
Inconclusive results and toxic doses are left out. No stated cut-off is given here; in the data, active means T/C of 150% or more; inactive means T/C below 125%.

System: L1210 leukemia ip in BDF1 mice, survival T/C
Assay: NCI In Vivo Anticancer Drug Screen. Data for tumor model L1210 Leukemia (intraperitoneal) in B6D2F1 (BDF1) mice
Details: endpoint: mean survival time, higher = longer survival
How it was run: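 Transplantable tumor model; survival measured in treated vs vehicle control mice. Value = treated/control.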

[1] = dose: 100.0 mg/kg/injection, schedule: Q01DX001 (ip), vehicle: carboxymethylcellulose (CMC)
[2] = dose: 200.0 mg/kg/injection, schedule: Q01DX001 (ip), vehicle: carboxymethylcellulose (CMC)
[3] = dose: 400.0 mg/kg/injection, schedule: Q01DX001 (ip), vehicle: carboxymethylcellulose (CMC)
[4] = dose: 100.0 mg/kg/injection, schedule: Q04DX003 (ip), vehicle: Klucel (hydroxypropylcellulose) (HPC)
[5] = dose: 200.0 mg/kg/injection, schedule: Q04DX003 (ip), vehicle: Klucel (hydroxypropylcellulose) (HPC)
[6] = dose: 100.0 mg/kg/injection, schedule: Q01DX009 (ip), vehicle: Klucel (hydroxypropylcellulose) (HPC)
[7] = dose: 200.0 mg/kg/injection, schedule: Q01DX009 (ip), vehicle: Klucel (hydroxypropylcellulose) (HPC)
[8] = dose: 50.0 mg/kg/injection, schedule: Q01DX009 (ip), vehicle: saline with Tween-80
[9] = dose: 100.0 mg/kg/injection, schedule: Q01DX009 (ip), vehicle: saline with Tween-80
[10] = dose: 200.0 mg/kg/injection, schedule: Q01DX009 (ip), vehicle: saline with Tween-80
[11] = dose: 100.0 mg/kg/injection, schedule: Q01DX001 (ip), vehicle: saline
[12] = dose: 100.0 mg/kg/injection, schedule: Q04DX002 (ip), vehicle: Klucel (hydroxypropylcellulose) (HPC)
[13] = dose: 200.0 mg/kg/injection, schedule: Q04DX002 (ip), vehicle: Klucel (hydroxypropylcellulose) (HPC)
[14] = dose: 400.0 mg/kg/injection, schedule: Q04DX002 (ip), vehicle: Klucel (hydroxypropylcellulose) (HPC)

Measured: T/C

O=C(O)CSc1ccc([N+](=O)[O-])cn1
inactive: dose: 6.25 mg/kg/injection, schedule: Q01DX001 (ip), vehicle: carboxymethylcellulose (CMC) 108 % of control | dose: 12.5 mg/kg/injection, schedule: Q01DX001 (ip), vehicle: carboxymethylcellulose (CMC) 111 % of control | dose: 25.0 mg/kg/injection, schedule: Q01DX001 (ip), vehicle: carboxymethylcellulose (CMC) 104 % of control | dose: 37.5 mg/kg/injection, schedule: Q01DX001 (ip), vehicle: carboxymethylcellulose (CMC) 104 % of control | dose: 50.0 mg/kg/injection, schedule: Q01DX001 (ip), vehicle: carboxymethylcellulose (CMC) 115 % of control | [1] 101 % of control | [2] 103 % of control | [3] 101 % of control

CC12CCC(C1)C(C)(C)C2C(N)=O (stereo not drawn)
inactive: [4] 93 % of control | [5] 93 % of control

CC(C)N(CCC#N)CN1C(=O)c2ccccc2C1=O
inactive: [6] 94 % of control | [7] 91 % of control

O=C1OC(=O)C2C1C1C=CC2C12CC2 (stereo not drawn)
inactive: [8] 97 % of control | [9] 102 % of control | [10] 105 % of control

CC(C)(NC(=O)NCCCl)c1ccccc1
inactive: [11] 96 % of control

Cc1ccc2c(ccc3cc(C)ccc32)c1
inactive: [12] 122 % of control | [13] 101 % of control | [14] 97 % of control

Cc1ccc(C)c(S(N)(=O)=O)c1
inactive: [12] 106 % of control | [13] 100 % of control | [14] 103 % of control

Nc1cc2[nH]cnc2c(Br)n1
inactive: dose: 100.0 mg/kg/injection, schedule: Q04DX003 (ip), vehicle: water 116 % of control | dose: 200.0 mg/kg/injection, schedule: Q04DX003 (ip), vehicle: water 116 % of control | dose: 400.0 mg/kg/injection, schedule: Q04DX003 (ip), vehicle: water 102 % of control

c1ccc2c(c1)ccc1[nH]c3c(c12)CCCC3
inactive: [1] 95 % of control | [2] 90 % of control | [3] 97 % of control

CCCCCCCCCCCC(=O)OCC1(C)COC(c2ccccc2)=N1 (stereo not drawn)
inactive: dose: 100.0 mg/kg/injection, schedule: Q01DX001 (ip), vehicle: saline with Tween-80 97 % of control | dose: 200.0 mg/kg/injection, schedule: Q01DX001 (ip), vehicle: saline with Tween-80 104 % of control | dose: 400.0 mg/kg/injection, schedule: Q01DX001 (ip), vehicle: saline with Tween-80 104 % of control

c1ccc(NC2=NCCO2)nc1
inactive: [8] 100 % of control | [9] 94 % of control | [10] 102 % of control

COCCCNP(=S)(N1CC1)N1CC1
inactive: dose: 2.0 mg/kg/injection, schedule: Q01DX Z (ip), vehicle: saline 92 % of control | dose: 4.0 mg/kg/injection, schedule: Q01DX Z (ip), vehicle: saline 116 % of control

CN1CCN(/N=N/N2CCN(C)CC2)CC1
inactive: dose: 100.0 mg/kg/injection, schedule: Q01DX001 (ip), vehicle: Klucel (hydroxypropylcellulose) (HPC) 105 % of control | dose: 200.0 mg/kg/injection, schedule: Q01DX001 (ip), vehicle: Klucel (hydroxypropylcellulose) (HPC) 101 % of control | dose: 400.0 mg/kg/injection, schedule: Q01DX001 (ip), vehicle: Klucel (hydroxypropylcellulose) (HPC) 100 % of control

O=C1C(Br)=CC(=C2C=C(Br)C(=O)C(Br)=C2)C=C1Br
inactive: dose: 50.0 mg/kg/injection, schedule: Q01DX009 (ip), vehicle: Klucel (hydroxypropylcellulose) (HPC) 104 % of control | [6] 117 % of control | [4] 96 % of control | [7] 104 % of control | [5] 108 % of control

CC(C)CCCC(C)CCC1C(=O)NC(=O)NC1=O (stereo not drawn)
inactive: dose: 75.0 mg/kg/injection, schedule: Q01DX001 (ip), vehicle: saline 90 % of control | dose: 150.0 mg/kg/injection, schedule: Q01DX001 (ip), vehicle: saline 88 % of control

NCCNCCNCCN1CC1
inactive: dose: 10.0 mg/kg/injection, schedule: Q04DX002 (ip), vehicle: saline 97 % of control | dose: 20.0 mg/kg/injection, schedule: Q04DX002 (ip), vehicle: saline 97 % of control

CC(C)=CCNc1ncnc2c1c(C(N)=O)cn2C1OC(CO)C(O)C1O (stereo not drawn)
inactive: dose: 100.0 mg/kg/injection, schedule: Q01DX005 (ip), vehicle: saline 107 % of control | dose: 200.0 mg/kg/injection, schedule: Q01DX005 (ip), vehicle: saline 123 % of control

O=C1c2ccccc2C(=O)c2cc3cc(Cl)ccc3cc21
inactive: [4] 90 % of control | [5] 87 % of control | dose: 400.0 mg/kg/injection, schedule: Q04DX003 (ip), vehicle: Klucel (hydroxypropylcellulose) (HPC) 95 % of control

CCOC(=O)CCC(NC(=O)c1ccc(N(C)S(=O)(=O)c2ccc(C)cc2)c2ccccc12)C(=O)OCC (stereo not drawn)
inactive: [9] 108 % of control | dose: 100.0 mg/kg/injection, schedule: Q04DX003 (ip), vehicle: saline with Tween-80 97 % of control | [10] 94 % of control | dose: 200.0 mg/kg/injection, schedule: Q04DX003 (ip), vehicle: saline with Tween-80 100 % of control | dose: 400.0 mg/kg/injection, schedule: Q01DX009 (ip), vehicle: saline with Tween-80 92 % of control | dose: 400.0 mg/kg/injection, schedule: Q04DX003 (ip), vehicle: saline with Tween-80 100 % of control

O=C(O)C(=C/c1ccccc1)/C(=C\c1ccccc1)C(=O)O
inactive: [11] 103 % of control | dose: 100.0 mg/kg/injection, schedule: Q01DX009 (ip), vehicle: saline 89 % of control | dose: 200.0 mg/kg/injection, schedule: Q01DX001 (ip), vehicle: saline 105 % of control | dose: 200.0 mg/kg/injection, schedule: Q01DX009 (ip), vehicle: saline 93 % of control | dose: 400.0 mg/kg/injection, schedule: Q01DX001 (ip), vehicle: saline 97 % of control | dose: 400.0 mg/kg/injection, schedule: Q01DX009 (ip), vehicle: saline 90 % of control

O=C(CBr)Nc1cccc(S(=O)(=O)F)c1
inactive: dose: 1.25 mg/kg/injection, schedule: Q01DX009 (ip), vehicle: carboxymethylcellulose (CMC) 89 % of control | dose: 2.5 mg/kg/injection, schedule: Q01DX009 (ip), vehicle: carboxymethylcellulose (CMC) 93 % of control | dose: 2.5 mg/kg/injection, schedule: Q04DX003 (ip), vehicle: carboxymethylcellulose (CMC) 100 % of control | dose: 5.0 mg/kg/injection, schedule: Q01DX009 (ip), vehicle: carboxymethylcellulose (CMC) 86 % of control | dose: 5.0 mg/kg/injection, schedule: Q04DX003 (ip), vehicle: carboxymethylcellulose (CMC) 100 % of control | dose: 10.0 mg/kg/injection, schedule: Q01DX001 (ip), vehicle: carboxymethylcellulose (CMC) 96 % of control | dose: 10.0 mg/kg/injection, schedule: Q04DX003 (ip), vehicle: carboxymethylcellulose (CMC) 93 % of control

NC(=S)N/N=C/c1cccc2ccccc12
inactive: dose: 100.0 mg/kg/injection, schedule: Q04DX002 (ip), vehicle: gum acacia 91 % of control | dose: 200.0 mg/kg/injection, schedule: Q04DX002 (ip), vehicle: gum acacia 98 % of control | dose: 400.0 mg/kg/injection, schedule: Q04DX002 (ip), vehicle: gum acacia 117 % of control

O=C(O)c1cccnc1C(=O)Nc1cccc2ccccc12
inactive: dose: 100.0 mg/kg/injection, schedule: Q04DX002 (ip), vehicle: saline with Tween-80 105 % of control | dose: 200.0 mg/kg/injection, schedule: Q04DX002 (ip), vehicle: saline with Tween-80 105 % of control | dose: 400.0 mg/kg/injection, schedule: Q04DX002 (ip), vehicle: saline with Tween-80 105 % of control
